Common to all, as to assay type: cell-based
The subject of experiment [1] is RhoB and CD277. Put plainly: Proximity ligation assay of RhoB and CD277 in EBV-LCL 48 cells. Conditions: ABP pretreated vs medium.
The subject of experiment [2] is Daudi. Kind of experiment: IFNγ ELISA of γ9δ2T cell clones co-incubated with Daudi. The method, then:
PBMCs were stained with monoclonal antibody (mAb) to Vδ2 (Vδ2-FITC clone B6). The mAb-positive fraction was either sorted in bulk, expanded on REP, and thereafter cloned by limiting dilution (donor A) or single cell-sorted using FACS sort with collection of single cells in 96 well plates (donors B, C). All FACS sorts were performed on ARIAII (BD). Eight to twelve rounds of expansion on REP preceded functional testing. As soon as the cells expanded to sufficient numbers functional testing was performed: 5*10^4 T cells were incubated overnight together with target cells at 1:1 E:T ratio in DMEM supplemented with 10% FCS and 1% pen/strep, without or in the presence of 100 uM Pamidronate Disodium salt (Calbiochem Cat #506600), supernatants were harvested the day after, and IFNγ concentration was measured using ELISA (eBioscience Ready-Set-Go! ELISA kit, Invitrogen Cat #88731688).
In order to assess on a broader range the impact of individual γ9δ2TCR on the functional activity of individual γ92δT cell clones γδ T cell clones were isolated by limiting dilution or FACS sorting. In vitro antitumor activity was determined by IFNγ production against the tumor cell line Daudi. Substantial antitumor functional heterogeneity was observed among the γ9δ2T cell clones (N=57) isolated from 4 healthy donors, with approximately 60% of the clones being reactive to the tumor cell line Daudi (FIG. 13A), when choosing a cut-off of 30 pg/ml for reliable measurement of IFNγ concentration. Bisphopshonates such as pamidronate (PAM) can enhance activity of γ9δ2T cells through induction of CD277J, facilitated by RhoB and sensed by the γ9δ2TCR. In the presence of 100 μM PAM the reactivity of investigated γ9δ2T cell clones was on average 10-fold enhanced (range 0.7-37.3; median 8.1) with >95% of the clones showing reactivity above the threshold when PAM was added (FIG. 13A). In order to assess whether activity profiles where exclusively observed for Daudi cells or also valid for other targets, the cell line HEK293FT, an additional well-characterized γδT cell target, was co-incubated with the isolated γδT cell clones. HEK293FT cell line elicited much lower cytokine secretion in the absence of PAM with only approximately 30% of γ9δ2T cell clones secreting IFNγ above cut-off (FIG. 13B).
(ELISA stands for enzyme-linked immunosorbent assay.)

The subject of experiment [3] is RhoB. Put plainly: Intracellular RhoB distribution in human dendritic cells. Conditions: human dendritic cells treated with ABP. The method, then:
For intracellular immunofluorescence staining of RhoB, cells were treated with pamidronate overnight (where indicated) and were allowed to attach onto coverslips precoated with poly-Llysine (Sigma-Aldrich). Cells were subsequently permeabilized with Permeabilizing solution 2 (BD), blocked with blocking serum (50% pooled normal human serum in PBS), and stained with a rabbit polyclonal anti-RhoB antibody (AbCam) followed by a secondary Goat anti-Rabbit IgG Alexa Fluor 488-conjugated antibody (Jackson ImmunoResearch). Cells were washed with blocking serum, fixed with 4% paraformaldehyde, stained with DAPI (where indicated), and mounted onto microscopy slides using Mowiol. Images were acquired using a Zeiss confocal laser scanning microscope LSM 700. Ratios between nuclear and extranuclear signal of RhoB was determined using Volocity software (PerkinElmer) or Image J software, where DAPI staining was used, when available, to mark nuclei.

For experiment [4], the system named is CD277. Put plainly: Flow cytometry FRET of CD277 homodimerization in HEK 293 cells. The note with it: medium vs ABP. The protocol: In order to determine homodimerization of CD277 molecules, cells were co-stained with equal amount of PE-conjugated anti-CD277 (donor) and […]680-conjugated anti-CD277 (acceptor) and samples were measured using a FACS Canto-II flow cytometer (BD). FRET efficiency was calculated with equations according to Sebestyen and colleagues (Sebestyen et al., 2002) where donor fluorescence was excited at 488 nm and detected at 576±26 nm, acceptor fluorescence was excited at 635 nm and detected at 780±60 nm, whereas FRET intensity was excited at 488 nm and detected at 780±60 nm. Correction factors for the spectral overlap between the different fluorescence channels were obtained from data measured on unlabeled and single-labeled cells.
On the technique in general: A flow cytometer gives signals particle by particle.

As for `NCCC(O)(P(=O)(O)O)P(=O)(O)O` [pamidronate], the “proximity of RhoB and CD277 (PLA signal)” value in experiment [1] is reported as “in close proximity”. Moreover, the “clones showing reactivity above the threshold” value in experiment [2] (100 μM PAM added, cut-off 30 pg/ml IFNγ) was more than 95%. In experiment [2] (100 μM PAM vs no PAM), the “enhancement of reactivity of γ9δ2T cell clones, average” value is listed as 10 fold; the “enhancement of reactivity of γ9δ2T cell clones, median” value turned out to be 8.1 fold; the “enhancement of reactivity of γ9δ2T cell clones, range” value is reported as 0.7-37.3 fold. Also, the “RhoB exclusion from the nucleus” value in experiment [3] was “excluded from the nucleus in human”. Moreover, in experiment [4], the “pairing of CD277 molecules (homodimer FRET)” value is on record as “insensitive”.

These data come from patent publication US12161669B2, “Compositions and methods for cell targeting therapies” (UMC UTRECHT HOLDING B.V., priority 2017, dated 2024).
